# According to patent publication US20070166367A1, “Adept or gdept producing acetaldehyde” (priority 2004, published 2007):
# Read-outs that look alike come from different tables or passages of the source.
# Tests used:
# [1] = acetaldehyde in breath and blood after ethanol consumption; type: in vivo; conditions: suggested from breath values and partition coefficient
# [2] = in vitro acetaldehyde toxicity assay; type: cell-based; conditions: human, Jurkat cells; higher concentrations (500 uM and 1 mM), day 3, FIG. 1; read-out: viable cell numbers as % of starting number
# Protocol: (§1) Standard tissue culture techniques were used to maintain Hela, Daudi, Jurkat, CMT-64 cells in flasks in DMEM+10% FCS in a 37° C. incubator.
# (§2) Cell lines subcloned into 25-cm^2 flasks and incubated in media containing dilutions of acetaldehyde, cisplatin or both. Flasks remained sealed during incubation and the media and acetaldehyde/cisplatin were replaced daily. Viable cell counts were made using Trypan blue exclusion and a standard haemocytometer.
# Hela = experiment: in vitro acetaldehyde toxicity assay; type: cell-based; conditions: 250 uM acetaldehyde
# Protocol: as §1, §2
# Jurkat = experiment: in vitro acetaldehyde toxicity assay; type: cell-based
# Protocol: as §1, §2
# [3] = target: T1, aldehyde dehydrogenase 1 (ALDH1) (Homo sapiens, UniProt P00352); conditions: cited from earlier work
# T1 sequence (P00352 1-501): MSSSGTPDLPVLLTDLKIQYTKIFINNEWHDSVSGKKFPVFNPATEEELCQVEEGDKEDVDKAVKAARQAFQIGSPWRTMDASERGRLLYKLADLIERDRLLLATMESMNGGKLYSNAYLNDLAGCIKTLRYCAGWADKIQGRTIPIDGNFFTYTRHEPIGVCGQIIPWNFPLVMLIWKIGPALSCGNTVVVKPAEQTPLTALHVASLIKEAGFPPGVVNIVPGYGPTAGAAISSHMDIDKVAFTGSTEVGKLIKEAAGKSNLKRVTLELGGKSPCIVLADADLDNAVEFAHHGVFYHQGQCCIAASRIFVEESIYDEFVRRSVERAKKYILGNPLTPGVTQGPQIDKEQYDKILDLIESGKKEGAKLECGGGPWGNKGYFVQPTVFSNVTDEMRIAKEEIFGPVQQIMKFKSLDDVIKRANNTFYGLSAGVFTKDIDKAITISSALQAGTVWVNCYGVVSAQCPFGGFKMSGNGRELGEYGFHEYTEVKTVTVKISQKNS
# [4] = target: T2, Acetaldehyde dehydrogenase 2 (ALDH2) (Homo sapiens, UniProt P05091); conditions: cited from earlier work
# T2 sequence (P05091 18-517): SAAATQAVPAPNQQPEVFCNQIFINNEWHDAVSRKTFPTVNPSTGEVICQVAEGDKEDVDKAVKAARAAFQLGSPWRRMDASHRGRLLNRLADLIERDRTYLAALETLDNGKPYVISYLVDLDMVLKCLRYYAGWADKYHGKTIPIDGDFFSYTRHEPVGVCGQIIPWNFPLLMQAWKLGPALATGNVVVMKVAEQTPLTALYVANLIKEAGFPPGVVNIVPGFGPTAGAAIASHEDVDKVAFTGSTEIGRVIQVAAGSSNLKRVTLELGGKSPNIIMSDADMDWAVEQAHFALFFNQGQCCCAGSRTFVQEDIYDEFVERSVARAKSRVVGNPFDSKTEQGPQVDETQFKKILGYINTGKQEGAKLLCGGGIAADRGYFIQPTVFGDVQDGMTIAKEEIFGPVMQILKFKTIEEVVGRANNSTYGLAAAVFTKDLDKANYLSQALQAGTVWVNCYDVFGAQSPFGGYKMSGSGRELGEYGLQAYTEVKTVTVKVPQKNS
# DNA = conditions: cited from earlier work
# [5] = test system: CaCo-2 (Human colorectal cancer cells); conditions: cited from earlier work; for Doubling Time: 72 hrs
# Human Fibroblasts = conditions: 5 hr exposure, cited from earlier work
# Human Lymphocytes = conditions: cited from earlier work
# [6] = tissue culture at 37° C., cited from earlier work
# [7] = ethanol fed animals, cited from earlier work
# [8] = during alcohol metabolism; cited from earlier work
# [9] = cited from earlier work
# [10] = ethanol IP 3 g/kg, +30 minutes, cited from earlier work
# [11] = in vivo; cited from earlier work
compound,measurement,setting,value
CC=O [acetaldehyde],blood values,[1],1 to 260 µM
same,viability at 3 days,[2],7%
same,effect on proliferation,Hela,reduction in the rate of proliferation
same,effect on proliferation,Jurkat; 250 uM acetaldehyde,reduction in the rate of proliferation
same,viable cells,"Jurkat; day 4, FIG. 1",no Jurkat cells viable
same,Km,[3],22 µM
same,Km,[4],3.5 µM
same,concentration that is toxic and produces irreparable DNA damage,DNA,1.56 mM
same,Cytotoxicity,[5]; 500 μM and 1000 μM acetaldehyde for 72 hrs,No significant effects.
same,Doubling Time,[5]; 500 μM,150 % of control
same,Doubling Time,[5]; 1000 μM,270 % of control
same,% survival,Human Fibroblasts; 1 mM,75%
same,% survival,Human Fibroblasts; 2 mM,55%
same,Number of metaphases (cell divisions) counted,Human Lymphocytes; 90 μM,200
same,Number of metaphases (cell divisions) counted,Human Lymphocytes; 180 μM,200
same,Number of metaphases (cell divisions) counted,Human Lymphocytes; 360 μM,200
same,Number of metaphases (cell divisions) counted,Human Lymphocytes; 720 μM,130
same,Number of metaphases (cell divisions) counted,Human Lymphocytes; 1080 μM,23
same,Number of metaphases (cell divisions) counted,Human Lymphocytes; 1440 μM,0 and no growth
same,½ life,[6],about 30 minutes
same,½ life,[6]; listed as Acetaldehyde,30 min
same,cellular conc,[7]; colon,about 250 μM
same,Acetaldehyde levels in colonic contents,[7],exceed 3 mM
same,levels in the liver,[8],~100 µM
same,concentrations of acetaldehyde in the breath,"[9]; after ethanol consumption, different patient groups",0.005 to 1.3 µM
same,systemic concentrations of acetaldehyde,[9]; volunteers consuming alcohol with an hepatic ALDH inhibitor,up to 240 uM
same,acetaldehyde levels,[10]; ADH overexpressing heart,70 µM
same,acetaldehyde levels,[10]; control heart,15 µM
same,level described for systemic acetaldehyde toxicity,[11],40 to 60 µM
